Tests used:
K-562 = assay: In vitro cytotoxicity assay (CellTiter-Glo); assay type: cell-based; conditions: for IC50: 72 h exposure, CellTiter-Glo
Method: (§1) The objective of these studies was to determine the IC50 values for PEG-gemcitabine conjugates against gemcitabine-resistant cell lines based on data from previous Xenograft studies. The cells were exposed for 72 h, and cell viability assessed by using the CellTiter-Glo assay.

NCI-H460 = assay: In vitro cytotoxicity assay (CellTiter-Glo); assay type: cell-based; conditions: for IC50: 72 h exposure, CellTiter-Glo
Method: as §1

CCRF-CEM = assay: In vitro cytotoxicity assay (CellTiter-Glo); assay type: cell-based; conditions: for IC50: 72 h exposure, CellTiter-Glo
Method: as §1

AS283 = assay: In vitro cytotoxicity assay (CellTiter-Glo); assay type: cell-based; conditions: for IC50: 72 h exposure, CellTiter-Glo
Method: as §1

DLD-1 = assay: In vitro cytotoxicity assay (CellTiter-Glo); assay type: cell-based; conditions: for IC50: 72 h exposure, CellTiter-Glo
Method: as §1

SW-620 = assay: In vitro cytotoxicity assay (CellTiter-Glo); assay type: cell-based; conditions: for IC50: 72 h exposure, CellTiter-Glo
Method: as §1

NCI-H23 = assay: In vitro cytotoxicity assay (CellTiter-Glo); assay type: cell-based; conditions: for IC50: 72 h exposure, CellTiter-Glo
Method: as §1

NCI-H522 = assay: In vitro cytotoxicity assay (CellTiter-Glo); assay type: cell-based; conditions: for IC50: 72 h exposure, CellTiter-Glo
Method: as §1

[1] = on a mM basis
Method: Cells were inoculated into 24-well microtiter plates in 100 μL at 5×10^3 cells/well, in duplicate. After 24 h, test articles were added to the cells for 24 or 48 h, after which time the supernatant from each of the wells was collected and stored below −15° C. until LC/MS analysis.

Question: Which results are given for COCCOCCOCCOP(=O)(O)OC[C@H]1O[C@@H](n2ccc(N)nc2=O)C(F)(F)[C@@H]1O.Cl [Gemcitabine Mono (mPEG3), 5′-gemcitabine methoxy tri(ethylene glycol) phosphate hydrochloride]?
Answer: Ratio vs gem (IC50) K-562 (K-562): 1; IC50 (K-562): 914 nM; Ratio vs gem (IC50) NCI-H460 (NCI-H460): 3; IC50 (NCI-H460): 43 nM; Ratio vs gem (IC50) CCRF-CEM (CCRF-CEM): 1; IC50 (CCRF-CEM): 6.5 nM; Ratio vs gem (IC50) AS283 (AS283): 3; IC50 (AS283): 408 nM; Ratio vs gem (IC50) DLD-1 (DLD-1): 4; IC50 (DLD-1): 93 nM; Ratio vs gem (IC50) SW-620 (SW-620): 2; IC50 (SW-620): 95 nM; Ratio vs gem (IC50) NCI-H23 (NCI-H23): 3; IC50 (NCI-H23): 18 nM; Ratio vs gem (IC50) NCI-H522 (NCI-H522): 8; IC50 (NCI-H522): 36 nM; remains after 24 and 48 h [1]: approximately 80%

Question: What does the source list for COCCOCCOCCOCCOCCOCCOCCOP(=O)(O)OC[C@H]1O[C@@H](n2ccc(N)nc2=O)C(F)(F)[C@@H]1O.Cl [Gemcitabine Mono (mPEG7), 5′-gemcitabine methoxy hepta(ethylene glycol) phosphate hydrochloride]?
Answer: Ratio vs gem (IC50) K-562 (K-562): 2; IC50 (K-562): 1150 nM; Ratio vs gem (IC50) NCI-H460 (NCI-H460): 3; IC50 (NCI-H460): 48 nM; Ratio vs gem (IC50) CCRF-CEM (CCRF-CEM): 1; IC50 (CCRF-CEM): 10 nM; Ratio vs gem (IC50) AS283 (AS283): 3; IC50 (AS283): 398 nM; Ratio vs gem (IC50) DLD-1 (DLD-1): 2; IC50 (DLD-1): 36 nM; Ratio vs gem (IC50) SW-620 (SW-620): 4; IC50 (SW-620): 182 nM; Ratio vs gem (IC50) NCI-H23 (NCI-H23): 7; IC50 (NCI-H23): 47 nM; Ratio vs gem (IC50) NCI-H522 (NCI-H522): 6; IC50 (NCI-H522): 26 nM; remains after 24 and 48 h [1]: approximately 80%

Reference: US9365604B2, “Oligomer-nucleoside phosphate conjugates” (NEKTAR THERAPEUTICS, priority 2007, dated 2016)
